Laboratory results published in US20050043346A1, “Pyridylpyrrole derivatives active as kinase inhibitors” (Pharmacia Italia S.p.A., priority 2003, published 2005).
Where “and” joins values, the source holds several entries; their conditions need not be identical. Equal entries are not always repeated. Structures can show the parent of a compound that is named as a salt.

Tests used:
[1] = target: Cdc7/Dbf4 (Homo sapiens, UniProt O00311); test: Inhibition assay of Cdc7/Dbf4 activity (Dowex resin capture, MCM2 substrate); format: biochemical; conditions: Cdc7/Dbf4, MCM2 substrate 6 μM, ATP 2 μM
Sequence of Cdc7/Dbf4 (O00311 whole entry): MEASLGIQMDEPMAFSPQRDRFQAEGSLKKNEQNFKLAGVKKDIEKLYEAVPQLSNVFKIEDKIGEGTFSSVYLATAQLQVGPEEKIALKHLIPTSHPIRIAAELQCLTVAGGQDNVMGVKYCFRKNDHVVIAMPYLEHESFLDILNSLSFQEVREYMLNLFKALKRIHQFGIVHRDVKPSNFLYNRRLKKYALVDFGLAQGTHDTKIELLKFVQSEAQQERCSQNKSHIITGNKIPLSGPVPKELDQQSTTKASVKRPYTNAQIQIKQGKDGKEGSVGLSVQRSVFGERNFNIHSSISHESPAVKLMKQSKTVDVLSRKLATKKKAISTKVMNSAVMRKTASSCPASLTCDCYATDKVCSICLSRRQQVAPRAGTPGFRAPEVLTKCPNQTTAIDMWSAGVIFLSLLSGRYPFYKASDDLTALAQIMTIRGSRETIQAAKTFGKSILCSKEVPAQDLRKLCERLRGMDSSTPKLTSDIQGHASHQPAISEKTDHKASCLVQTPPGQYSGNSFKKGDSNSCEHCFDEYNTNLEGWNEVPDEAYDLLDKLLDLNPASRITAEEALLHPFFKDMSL
Sequence of Cdc7/Dbf4 (Q9UBU7 whole entry partner): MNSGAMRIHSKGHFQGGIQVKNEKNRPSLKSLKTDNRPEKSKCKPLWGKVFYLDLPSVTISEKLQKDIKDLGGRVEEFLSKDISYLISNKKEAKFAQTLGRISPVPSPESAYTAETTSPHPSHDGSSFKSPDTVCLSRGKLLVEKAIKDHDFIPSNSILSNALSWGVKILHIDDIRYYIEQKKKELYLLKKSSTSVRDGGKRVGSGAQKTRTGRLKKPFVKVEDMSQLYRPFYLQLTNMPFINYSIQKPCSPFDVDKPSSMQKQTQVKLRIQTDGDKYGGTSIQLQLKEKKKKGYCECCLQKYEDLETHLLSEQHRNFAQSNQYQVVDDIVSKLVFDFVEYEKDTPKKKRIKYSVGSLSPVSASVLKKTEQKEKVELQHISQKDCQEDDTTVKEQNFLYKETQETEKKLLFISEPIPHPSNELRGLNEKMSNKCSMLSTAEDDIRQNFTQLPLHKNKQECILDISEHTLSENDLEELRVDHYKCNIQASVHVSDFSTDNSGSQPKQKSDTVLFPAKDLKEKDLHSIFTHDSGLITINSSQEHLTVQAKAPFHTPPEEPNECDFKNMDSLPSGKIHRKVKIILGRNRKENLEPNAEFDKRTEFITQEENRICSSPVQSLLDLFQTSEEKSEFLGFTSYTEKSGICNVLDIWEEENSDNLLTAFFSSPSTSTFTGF
Method: The inhibiting activity of putative Cdc7 inhibitors and the potency of selected compounds is determined through a method of assay based on the use of Dowex resin capture technology. The assay consists of the transfer of radioactivity labeled phosphate moiety by the kinase to an acceptor substrate. The resulting 33P-labeled product is separated from unreacted tracer, transferred into a scintillation cocktail and light emitted is measured in a scintillation counter.
The inhibition assay of Cdc7/Dbf4 activity is performed according to the following protocol. The MCM2 substrate is trans-phosphorylated by the Cdc7/Dbf4 complex in the presence of ATP traced with γ^33-ATP. The reaction is stopped by addition of Dowex resin in the presence of formic acid. Dowex resin particles capture unreacted γ^33-ATP and drag it to the bottom of the well while ^33P phosphorylated MCM2 substrate remains in solution. The supernatant is collected, transferred into Optiplate plates and the extent of substrate phosphorylation is evaluated by β counting.
The inhibition assay of Cdc7/Dbf4 activity was performed in 96 wells plate according to the following protocol.
The solvent for test compounds contained 3% DMSO. (final concentration 1%) • 10 μl substrate MCM2 (6 μM final concentration), a mixture of cold ATP (2 μM final concentration) and radioactive ATP (1/5000 molar ratio with cold ATP). • 10 μl enzyme (Cdc7/Dbf4, 2 nM final concentration) that started the reaction. The buffer of the reaction consisted in 50 mM HEPES pH 7.9 containing 15 mM MgCl2, 2 mM DTT, 3 μM NaVO3, 2 mM glycerophosphate and 0.2 mg/ml BSA.
After incubation for 60 minutes at room temperature, the reaction was stopped by adding to each well 150 μl of Dowex resin in the presence of 150 mM formic acid. After another 60 min incubation, 50 μL of suspension were withdrawn and transferred into 96-well OPTIPLATEs containing 150 μl of MicroScint 40 (Packard); after 5-10 minutes shaking the plates were read for 1 min in a Packard TOP-Count radioactivity reader.
Experimental data were analyzed by the computer program Assay Explorer using the four parameter logistic equation: y=bottom+(top−bottom)/(1+10^((log IC50−x)*slope)) where x is the logarithm of the inhibitor concentration, y is the response; y starts at bottom and goes to top with a sigmoid shape.

[2] = target: cdk2/Cyclin A (Homo sapiens, UniProt P24941); test: Inhibition assay of cdk2/Cyclin A activity (SPA); format: biochemical; conditions: Cyclin A/CDK2 complex, histone H1 substrate, 10 μM ATP
Method: The inhibiting activity of putative cdk/cyclin inhibitors and the potency of selected compounds may be determined through a method of assay based on the use of the SPA technology (Amersham Pharmacia Biotech).
The assay consists of the transfer of radioactivity labelled phosphate moiety by the kinase to a biotinylated substrate. The resulting 33P-labelled biotinylated product is allowed to bind to streptavidin-coated SPA beads (biotin capacity 130 pmol/mg), and light emitted was measured in a scintillation counter.
Kinase reaction: 4 μM in house biotinylated histone H1 (Sigma #H-5505) substrate, 10 μM ATP (0.1 microCi P^33γ-ATP), 1.1 nM Cyclin A/CDK2 complex, inhibitor in a final volume of 30 μl buffer (TRIS HCl 10 mM pH 7.5, MgCl2 10 mM, DTT 7.5 mM+0.2 mg/ml BSA) were added to each well of a 96 U bottom. After incubation for 60 min at room temperature, the reaction was stopped by addition of 100 μl PBS buffer containing 32 mM EDTA, 500 μM cold ATP, 0.1% Triton X100 and 10 mg/ml streptavidin coated SPA beads. After 20 min incubation, 110 μL of suspension were withdrawn and transferred into 96-well OPTIPLATEs containing 100 μl of 5M CsCl. After 4 hours, the plates were read for 2 min in a Packard TOP-Count radioactivity reader.
IC50 determination: inhibitors were tested at different concentrations ranging from 0.0015 to 10 μM. […]

IC50 [1] | IC50 [2] [nM] | SMILES
1 nM | – | CCC1CNC(=O)c2cc(-c3ccncc3F)[nH]c21 [(7R,7S)-2-(3-fluoropyridin-4-yl)-7-ethyl-1,5,6,7-tetrahydro-4H-pyrrolo[3,2-c]pyridin-4-one]
4 nM | – | CC(C)CC1CNC(=O)c2cc(-c3ccncc3F)[nH]c21 [(7R,7S)-2-(3-fluoropyridin-4-yl)-7-isobutyl-1,5,6,7-tetrahydro-4H-pyrrolo[3,2-c]pyridin-4-one]
3 nM | – | CC(C)C1CNC(=O)c2cc(-c3ccncc3F)[nH]c21 [(7R,7S)-2-(3-fluoropyridin-4-yl)-7-isopropyl-1,5,6,7-tetrahydro-4H-pyrrolo[3,2-c]pyridin-4-one]
17 nM | – | O=C1NCC(Cc2ccccc2)c2[nH]c(-c3ccncc3)cc21 [(7R,7S)-7-benzyl-2-pyridin-4-yl-1,5,6,7-tetrahydro-4H-pyrrolo[3,2-c]pyridin-4-one]
5 nM | – | CC(C)CC1CNC(=O)c2cc(-c3ccncc3)[nH]c21 [(7R,7S)-7-isobutyl-2-pyridin-4-yl-1,5,6,7-tetrahydro-4H-pyrrolo[3,2-c]pyridin-4-one hydrochloride]
20 nM | – | CC(C)C1CNC(=O)c2cc(-c3ccncc3)[nH]c21 [(7R,7S)-7-isopropyl-2-pyridin-4-yl-1,5,6,7-tetrahydro-4H-pyrrolo[3,2-c]pyridin-4-one]
5 nM | – | CC1CNC(=O)c2cc(-c3ccncc3)[nH]c21 [(7R,7S)-7-methyl-2-pyridin-4-yl-1,5,6,7-tetrahydro-4H-pyrrolo[3,2-c]pyridin-4-one hydrochloride]
3 nM | – | CCC(C)C1CNC(=O)c2cc(-c3ccncc3)[nH]c21 [(7R,7S)-7-sec-butyl-2-pyridin-4-yl-1,5,6,7-tetrahydro-4H-pyrrolo[3,2-c]pyridin-4-one]

Second part, the molecule before the results:

SMILES | IC50 [1] | IC50 [2] [nM]
O=C1NC(Cc2ccccc2)Cc2[nH]c(-c3ccncc3)cc21 (single isomer, unassigned) [(6R or 6S)-6-benzyl-2-pyridin-4-yl-1,5,6,7-tetrahydro-4H-pyrrolo[3,2-c]pyridin-4-one] | 20 nM and 9 nM | –
CC1CNC(=O)c2cc(-c3ccncc3)[nH]c21 (single isomer, unassigned) [(7R or 7S)-7-methyl-2-pyridin-4-yl-1,5,6,7-tetrahydro-4H-pyrrolo[3,2-c]pyridin-4-one] | 4 nM and 7 nM | –
O=C1NCCc2[nH]c(-c3ccnc4[nH]ccc34)cc21 [2-(1H-pyrrolo[2,3-b]pyridin-4-yl)-1,5,6,7-tetrahydro-4H-pyrrolo[3,2-c]pyridin-4-one hydrochloride] | 16 nM | –
O=C1NCCc2[nH]c(-c3ccncc3F)cc21 [2-(3-fluoropyridin-4-yl)-1,5,6,7-tetrahydro-4H-pyrrolo[3,2-c]pyridin-4-one hydrochloride] | 8 nM | –
O=C1NCCc2[nH]c(-c3ccnc(NC4CCCC4)c3)cc21 [2-[2-(cyclopentylamino)pyridin-4-yl]-1,5,6,7-tetrahydro-4H-pyrrolo[3,2-c]pyridin-4-one] | – | 40
O=C1NCC2(CC2)c2[nH]c(-c3ccncc3)cc21 [2′-pyridin-4-yl-5′,6′-dihydrospiro[cyclopropane-1,7′-pyrrolo[3,2-c]pyridin]-4′(1′H)-one] | 2 nM | –
Cc1c(-c2ccncc2)[nH]c2c1C(=O)NCC2 [3-methyl-2-pyridin-4-yl-1,5,6,7-tetrahydro-4H-pyrrolo[3,2-c]pyridin-4-one hydrochloride] | 3 nM | –
CCC1(CC)CNC(=O)c2cc(-c3ccncc3)[nH]c21 [7,7-diethyl-2-pyridin-4-yl-1,5,6,7-tetrahydro-4H-pyrrolo[3,2-c]pyridin-4-one hydrochloride] | 7 nM | –
CC1(C)CNC(=O)c2cc(-c3ccncc3)[nH]c21 [7,7-dimethyl-2-pyridin-4-yl-1,5,6,7-tetrahydro-4H-pyrrolo[3,2-c]pyridin-4-one hydrochloride] | 3 nM | –
O=C1NC(CCc2ccccc2)Cc2[nH]c(-c3ccncc3)cc21 [(6R,6S)-6-(2-phenylethyl)-2-pyridin-4-yl-1,5,6,7-tetrahydro-4H-pyrrolo[3,2-c]pyridin-4-one hydrochloride] | 26 nM | –
O=C1NC(Cc2ccccc2)Cc2[nH]c(-c3ccncc3)cc21 [(6R,6S)-6-benzyl-2-pyridin-4-yl-1,5,6,7-tetrahydro-4H-pyrrolo[3,2-c]pyridin-4-one] | 16 nM | –
O=C1NC(C2CCCCC2)Cc2[nH]c(-c3ccncc3)cc21 [(6R,6S)-6-cyclohexyl-2-pyridin-4-yl-1,5,6,7-tetrahydro-4H-pyrrolo[3,2-c]pyridin-4-one] | 8 nM | –
O=C1NC(C2CC2)Cc2[nH]c(-c3ccncc3)cc21 [(6R,6S)-6-cyclopropyl-2-pyridin-4-yl-1,5,6,7-tetrahydro-4H-pyrrolo[3,2-c]pyridin-4-one] | 2 nM | –
CC(C)C1Cc2[nH]c(-c3ccncc3)cc2C(=O)N1 [(6R,6S)-6-isopropyl-2-pyridin-4-yl-1,5,6,7-tetrahydro-4H-pyrrolo[3,2-c]pyridin-4-one hydrochloride] | 9 nM | –
C[C@H]1Cc2[nH]c(-c3ccncc3)cc2C(=O)N1 [(6S)-6-methyl-2-pyridin-4-yl-1,5,6,7-tetrahydro-4H-pyrrolo[3,2-c]pyridin-4-one] | 14 nM | –
